Data: patent US4551445A, “Derivatives of arginine vasopressin antagonists” (The Medical College of Ohio, priority 1983, dated 1985)
Starred links: 1 amine or outer side, 2 acyl side, 3 side chain; linkers in the order of their positions; H or OH if unused. Positions of bridges follow the written chain, without caps; N, C: chain ends. Non-standard residues stand in square brackets, D forms with d. Residues, ends and D or L forms follow the SMILES beside them. X1 = O=C(CC1(S[*:2])CCCCC1)[*:1]

What was measured:
[1] = tested on: antidiuretic response to arginine vasopressin (ADH); assay: Anti-antidiuretic: antagonism of the antidiuretic response to subsequent injections of vasopressin; format: in vivo, rats; conditions: for Anti-Antidiuretic pA2: estimated in vivo pA2, volume of distribution 67 ml/kg
Experimental: Activity as antidiuretic agonists was determined by intravenous injection of the compounds being evaluated in ethanol-anesthesized water-loaded rats in accordance with Sawyer, Endocrinology, vol. 63 (1958) at 694. Antagonism of the response to subsequent injections of vasopressin was tested as described by Sawyer et al., Science, vol. 212 (1981) at 49.
(§1) Antagonistic potencies were determined and expressed as "effective doses" and pA2 values. The "effective dose" is defined as the dose (in nanomoles per kilogram) that reduces the response seen from 2x units of agonist injected 20 min after the dose of antagonist to the response with 1x units of agonist. Estimated in vivo "pA2 " values represent the negative logarithms of the effective doses, divided by the estimated volume of distribution (67 ml/kg).

[2] = tested on: vasopressor response to arginine vasopressin; assay: Antivasopressor: antagonism to the vasopressor response (Dyckes et al.); format: in vivo; conditions: for Antivasopressor pA2: Table 1, estimated in vivo pA2
Experimental: Antagonism to the vasopressor response was estimated in accordance with Dyckes et al., J. Med. Chem., vol. 17 (1974) at 969. The values are expressed as pA2 values, defined as in Schild et al., Br. J. Pharmacol., vol. 2 (1947) at 189.
as §1

COc1ccc(C[C@@H]2NC(=O)CC3(CCCCC3)SSC[C@H](C(=O)N3CCC[C@H]3C(=O)N[C@@H](CCCNC(=N)N)C(=O)NCC(N)=O)NC(=O)[C@H](CC(N)=O)NC(=O)[C@H](CCC(N)=O)NC(=O)[C@H](Cc3ccccc3)NC2=O)cc1 [d(CH2)5 Tyr(Me)^2 D-Cys^6 AVP] (Y(Me)FQN[dC]PRG-NH2; linker N-5 via X1)
Anti-Antidiuretic pA2 ([1]; Table 1): 5.5
Antivasopressor pA2 [2]: 7.87 ± 0.09

[1-(β-mercapto-β,β-cyclopentamethylenepropionic acid), 2-D-phenylalanine, 4-aminobutyric acid]-arginine vasopressin [d(CH 2)5 D-Phe^2 Abu^4 AVP]
Anti-Antidiuretic ED ([1]; Table 2, effective dose): 0.77 ± 0.12 nmol/kg
Anti-Antidiuretic pA2 ([1]; Table 2): 7.96
Antivasopressor Potency ED ([2]; Table 2, effective dose): 1.4 ± 0.3 nmol/kg
AD/VP ([2]; Table 2, ratio, values fit antivasopressor ED / anti-antidiuretic ED): 1.8

CCOc1ccc(C[C@@H]2NC(=O)CC3(CCCCC3)SSC[C@@H](C(=O)N3CCC[C@H]3C(=O)N[C@H](CCCNC(=N)N)C(=O)NCC(N)=O)NC(=O)[C@H](CC(N)=O)NC(=O)[C@H](C(C)C)NC(=O)[C@H](Cc3ccccc3)NC2=O)cc1 [d(CH2)5 Tyr(Et)VDAVP] (Y(Et)FVNCP[dR]G-NH2; linker N-5 via X1)
Anti-Antidiuretic pA2 ([1]; Table 1): 7.10 ± 0.08
Antivasopressor pA2 [2]: 8.31 ± 0.05

COc1ccc(C[C@H]2NC(=O)CC3(CCCCC3)SSC[C@@H](C(=O)N3CCC[C@H]3C(=O)N[C@@H](CCCNC(=N)N)C(=O)NCC(N)=O)NC(=O)[C@H](CC(N)=O)NC(=O)[C@H](CCC(N)=O)NC(=O)[C@H](Cc3ccccc3)NC2=O)cc1 [d(CH2)5 [D-Tyr(Me)^2]AVP, [1-(β-mercapto-β,β-cyclopentamethylenepropionic acid), 2-D-(O-methyl)tyrosine]-arginine vasopressin] ([dY](Me)FQNCPRG-NH2; linker N-5 via X1)
Anti-Antidiuretic pA2 ([1]; Table 1): 6.98 ± 0.08
Antivasopressor pA2 [2]: 8.27 ± 0.02
